Drawing on publication PMC11053857, “Synthesis, In Vitro Biological Evaluation and Molecular Modeling of Benzimidazole-Based Pyrrole/Piperidine Hybrids Derivatives as Potential Anti-Alzheimer Agents” (Pharmaceuticals, 2024), this text covers IC50 for 25 compounds.

In test [1] the target is acetylcholinesterase (AChE) (Homo sapiens, UniProt P22303). The test can be described thus: biochemical. On the procedure:
The enzyme inhibition activities for acetylcholinesterase and butyrylcholinesterase were determined using the method of Ellman et al. with slight modifications. The 62.0 mM sodium phosphate buffer (pH 8.0, 880 μL) used contained 0.002 M of DTNB (5,5′-dithiobis-2-nitrobenzoic acid). AChE and BuChE solutions (40 μL) were added with the test compounds (40 μL) and kept at 25 °C for 10–15 min. The acetylthiocholine or butyrylthiocholine (40 μL) were added just before the initiation of the catalytic reaction. […] The inhibition reactions were repeated in triplicate with a Shimadzu spectrophotometer (Kyoto, Japan).

In test [2] the target is butyrylcholinesterase (BuChE) (Homo sapiens, UniProt P06276). Briefly: biochemical. The settings on record: in vitro, 25 °C, pH 8.0, triplicate, standards listed separately for series 1–13 and 14–26. On the procedure: The enzyme inhibition activities for acetylcholinesterase and butyrylcholinesterase were determined using the method of Ellman et al. with slight modifications. The 62.0 mM sodium phosphate buffer (pH 8.0, 880 μL) used contained 0.002 M of DTNB (5,5′-dithiobis-2-nitrobenzoic acid). AChE and BuChE solutions (40 μL) were added with the test compounds (40 μL) and kept at 25 °C for 10–15 min. The acetylthiocholine or butyrylthiocholine (40 μL) were added just before the initiation of the catalytic reaction. The enzymatic hydrolysis of the substrates encompassing the formation of yellow 5-thio-2-nitrobenzoate anion products was monitored at 412 nm (15 min). The inhibition reactions were repeated in triplicate with a Shimadzu spectrophotometer (Kyoto, Japan).

Setting [3] is: in vitro, 25 °C, pH 8.0, triplicate, standards listed separately for series 1–13 and 14–26, read-out: AChE Inhibition IC50 ± SEM.
The mark [4] stands for this setting: read-out: BuChE Inhibition IC50 ± SEM.

Where two headings read alike, the source gives them in different places.

Chain of butyrylcholinesterase (BuChE) (P06276 29-602): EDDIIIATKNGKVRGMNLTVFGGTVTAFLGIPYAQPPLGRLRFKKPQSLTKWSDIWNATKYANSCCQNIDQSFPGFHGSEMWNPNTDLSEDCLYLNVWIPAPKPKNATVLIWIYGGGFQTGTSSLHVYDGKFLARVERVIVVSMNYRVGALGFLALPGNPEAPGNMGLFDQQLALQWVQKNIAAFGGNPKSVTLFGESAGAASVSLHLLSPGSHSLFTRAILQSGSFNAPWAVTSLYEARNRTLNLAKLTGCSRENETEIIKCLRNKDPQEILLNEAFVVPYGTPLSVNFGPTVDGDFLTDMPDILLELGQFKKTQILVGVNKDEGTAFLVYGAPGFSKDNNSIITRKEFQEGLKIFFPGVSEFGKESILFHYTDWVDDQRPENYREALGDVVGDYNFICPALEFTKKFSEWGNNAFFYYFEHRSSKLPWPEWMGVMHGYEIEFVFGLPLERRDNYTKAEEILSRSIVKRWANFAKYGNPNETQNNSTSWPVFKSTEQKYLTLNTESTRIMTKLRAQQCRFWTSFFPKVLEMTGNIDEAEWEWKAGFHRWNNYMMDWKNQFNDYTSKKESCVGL
Chain of acetylcholinesterase (AChE) (P22303 32-614, species assumed): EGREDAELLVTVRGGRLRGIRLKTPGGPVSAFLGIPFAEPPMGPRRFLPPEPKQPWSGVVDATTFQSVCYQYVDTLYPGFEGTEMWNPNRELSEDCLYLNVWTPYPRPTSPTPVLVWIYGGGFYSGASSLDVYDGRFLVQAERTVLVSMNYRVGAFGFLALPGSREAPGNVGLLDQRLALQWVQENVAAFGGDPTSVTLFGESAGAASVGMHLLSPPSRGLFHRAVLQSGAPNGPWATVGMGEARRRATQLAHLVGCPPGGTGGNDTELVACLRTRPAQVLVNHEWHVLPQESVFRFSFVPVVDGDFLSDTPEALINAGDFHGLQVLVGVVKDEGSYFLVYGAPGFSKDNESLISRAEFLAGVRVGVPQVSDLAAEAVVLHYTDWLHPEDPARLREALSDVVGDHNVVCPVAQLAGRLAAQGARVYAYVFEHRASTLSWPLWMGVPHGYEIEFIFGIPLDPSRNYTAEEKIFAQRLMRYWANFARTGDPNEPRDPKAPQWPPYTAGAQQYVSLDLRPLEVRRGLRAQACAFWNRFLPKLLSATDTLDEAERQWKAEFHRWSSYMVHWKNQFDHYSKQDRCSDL

The term IC50 denotes the point on the concentration scale where inhibition reaches its midpoint. For `Cc1ccc(/C(CSc2nc3cc([N+](=O)[O-])ccc3[nH]2)=N\N=C\N2CCCCC2)cc1` [Compound 25, 5-nitro-2-(((E)-2-(((E)-piperidin-1-ylmethylene)hydrazono)-2-(p-tolyl)ethyl)thio)-1H-benzo[d]imidazole], the IC50 in test [1] (setting [3]) turned out to be 35.01 ± 0.25 µM; in test [2] (setting [4]) it was 32.25 ± 0.12 µM.

For the compound `COc1ccc(/C(CSc2nc3cc(OC)ccc3[nH]2)=N\N=C\N2CCCCC2)cc1` [Compound 16, 5-methoxy-2-(((E)-2-(4-methoxyphenyl)-2-(((E)-piperidin-1ylmethylene) hydrazono)ethyl)thio)-1H-benzo[d]imidazole], the values for the IC50 in test [1] (setting [3]) and in test [2] (setting [4]) were 28.13 ± 0.23 µM and 30.01 ± 0.23 µM, respectively.

As to `O=[N+]([O-])c1cccc(/C(CSc2nc3cc([N+](=O)[O-])ccc3[nH]2)=N\N=C\c2cc[nH]c2)c1` [Compound 10, 2-(((E)-2-(((E)-(1H-pyrrol-3-yl)methylene)hydrazono)-2-(3-nitrophenyl)ethyl)thio)-5-nitro-1H-benzo[d]imidazole], the IC50 came out at 19.4 ± 0.6 µM in test [1] and 21.6 ± 0.61 µM in test [2] (BuChE Inhibition IC50 ± SEM).

For the compound `COc1ccccc1/C(CSc1nc2ccccc2[nH]1)=N\N=C\N1CCCCC1` [Compound 21, 2-(((E)-2-(2-methoxyphenyl)-2-(((E)-piperidin-1-ylmethylene)hydrazono)ethyl)thio)-1H-benzo[d]imidazole], the IC50 in test [1] (setting [3]) turned out to be 30.1 ± 0.41 µM; in test [2] (setting [4]) it was 38.02 ± 0.04 µM.

Regarding `COc1ccc2[nH]c(SC/C(=N/N=C/N3CCCCC3)c3cccc([N+](=O)[O-])c3)nc2c1` [Compound 17, 5-methoxy-2-(((E)-2-(3-nitrophenyl)-2-(((E)-piperidin-1-ylmethylene)hydrazono)ethyl)thio)-1H-benzo[d]imidazole], the figures for the IC50 in test [1] (setting [3]) and in test [2] (setting [4]) were 23.1 ± 0.41 µM and 27.3 ± 0.5 µM, respectively.

For `COc1ccc2[nH]c(SC/C(=N/N=C/c3cc[nH]c3)c3ccccc3OC)nc2c1` [Compound 4, 2-(((E)-2-(((E)-(1H-pyrrol-3-yl)methylene)hydrazono)-2-(2-methoxyphenyl)ethyl)thio)-5-methoxy-1H-benzo[d]imidazole], the IC50 in test [1] (setting [3]) came to 26.2 ± 0.41 µM; in test [2] (setting [4]) it was 29.2 ± 0.8 µM.

`COc1ccc(/C(CSc2nc3ccccc3[nH]2)=N\N=C\c2cc[nH]c2)cc1` [Compound 9, 2-(((E)-2-(((E)-(1H-pyrrol-3-yl)methylene)hydrazono)-2-(4-methoxyphenyl)ethyl)thio)-1H-benzo[d]imidazole]: the IC50 in test [1] (setting [3]) was 24.16 ± 0.21 µM; in test [2] (setting [4]) it was 28.01 ± 0.13 µM.

Turning to `COc1ccc2[nH]c(SC/C(=N/N=C/c3cc[nH]c3)c3ccc(-c4ccccc4)cc3)nc2c1` [Compound 3, 2-(((E)-2-(((E)-(1H-pyrrol-3-yl)methylene)hydrazono)-2-([1,1′-biphenyl]-4-yl)ethyl)thio)-5-methoxy-1H-benzo[d]imidazole], the IC50 in test [1] (setting [3]) worked out at 30.11 ± 0.23 µM; in test [2] (setting [4]), 34.06 ± 0.14 µM.

As to `O=[N+]([O-])c1cccc(/C(CSc2nc3ccccc3[nH]2)=N\N=C\c2cc[nH]c2)c1` [Compound 6, 2-(((E)-2-(((E)-(1H-pyrrol-3-yl)methylene)hydrazono)-2-(3-nitrophenyl)ethyl)thio)-1H-benzo[d]imidazole], the IC50 in test [1] (setting [3]) turned out to be 28.12 ± 0.09 µM; in test [2] (setting [4]), 32.14 ± 0.21 µM.

Regarding `Cc1ccc(/C(CSc2nc3cc([N+](=O)[O-])ccc3[nH]2)=N\N=C\c2cc[nH]c2)cc1` [Compound 13, 2-(((E)-2-(((E)-(1H-pyrrol-3-yl)methylene)hydrazono)-2-(p-tolyl)ethyl)thio)-5-nitro-1H-benzo[d]imidazole], the IC50 in test [1] (setting [3]) was found to be 27.08 ± 0.25 µM; in test [2] (setting [4]), 33.3 ± 0.42 µM.

`COc1ccc2[nH]c(SC/C(=N/N=C/N3CCCCC3)c3ccc(C)cc3)nc2c1` [Compound 18, 5-methoxy-2-(((E)-2-(((E)-piperidin-1-ylmethylene)hydrazono)-2-(p-tolyl)ethyl)thio)-1H-benzo[d]imidazole]: the IC50 in test [1] (setting [3]) was determined as 36.15 ± 0.03 µM; in test [2] (setting [4]) it was 39.11 ± 0.13 µM.

As for `COc1ccc(/C(CSc2nc3ccccc3[nH]2)=N\N=C\N2CCCCC2)cc1` [Compound 22, 2-(((E)-2-(4-methoxyphenyl)-2-(((E)-piperidin-1-ylmethylene)hydrazono)ethyl)thio)-1H-benzo[d]imidazole], the IC50 amounted to 34.02 ± 0.11 µM in test [1] (setting [3]) and 34.31 ± 0.12 µM in test [2] (setting [4]).

For the compound `C(=N\N=C(\CSc1nc2ccccc2[nH]1)c1ccc(-c2ccccc2)cc1)/c1cc[nH]c1` [Compound 5, 2-(((E)-2-(((E)-(1H-pyrrol-3-yl)methylene)hydrazono)-2-([1,1′-biphenyl]-4-yl)ethyl)thio)-1H-benzo[d]imidazole], the values for the IC50 in test [1] (setting [3]) and in test [2] (setting [4]) were 34.16 ± 0.03 µM and 37.21 ± 0.23 µM, respectively.

In the case of `Cc1ccc(/C(CSc2nc3ccccc3[nH]2)=N\N=C\N2CCCCC2)cc1` [Compound 19, 2-(((E)-2-(((E)-piperidin-1-ylmethylene)hydrazono)-2-(p-tolyl)ethyl)thio)-1H-benzo[d]imidazole], the IC50 in test [1] (setting [3]) turned out to be 33.19 ± 0.09 µM; in test [2] (setting [4]), 36.22 ± 0.11 µM.

`COc1ccc2[nH]c(SC/C(=N/N=C/N3CCCCC3)c3ccc(-c4ccccc4)cc3)nc2c1` [Compound 14, 2-(((E)-2-([1,1′-biphenyl]-4-yl)-2-(((E)-piperidin-1-ylmethylene)hydrazono)ethyl)thio)-5-methoxy-1H-benzo[d]imidazole]: the IC50 in test [1] (setting [3]) worked out at 42.01 ± 0.02 µM; in test [2] (setting [4]), 47.03 ± 0.15 µM.

With `COc1ccc2[nH]c(SC/C(=N/N=C/c3cc[nH]c3)c3ccc(C)cc3)nc2c1` [Compound 1, 2-(((E)-2-(((E)-(1H-pyrrol-3-yl)methylene)hydrazono)-2-(p-tolyl)ethyl)thio)-5-methoxy-1H-benzo[d]imidazole], the IC50 in test [1] (setting [3]) is 27.11 ± 0.02 µM; in test [2] (setting [4]) it was 31.03 ± 0.11 µM.

In the case of `COc1ccc2[nH]c(SC/C(=N/N=C/N3CCCCC3)c3ccccc3OC)nc2c1` [Compound 15, 5-methoxy-2-(((E)-2-(2-methoxyphenyl)-2-(((E)-piperidin-1-ylmethylene)hydrazono)ethyl)thio)-1H-benzo[d]imidazole], the figures for the half-inhibitory concentration (IC50) in test [1] (setting [3]) and in test [2] (setting [4]) were 26.03 ± 0.15 µM and 29.11 ± 0.14 µM, respectively.

As for `COc1ccc(/C(CSc2nc3cc([N+](=O)[O-])ccc3[nH]2)=N\N=C\N2CCCCC2)cc1` [Compound 24, 2-(((E)-2-(4-methoxyphenyl)-2-(((E)-piperidin-1-ylmethylene)hydrazono)ethyl)thio)-5-nitro-1H-benzo[d]imidazole], the results for the IC50 in test [1] (setting [3]) and in test [2] (setting [4]) were 32.05 ± 0.14 µM and 39.66 ± 0.24 µM, respectively.

As to `Cc1ccc(/C(CSc2nc3ccccc3[nH]2)=N\N=C\c2cc[nH]c2)cc1` [Compound 7, 2-(((E)-2-(((E)-(1H-pyrrol-3-yl)methylene)hydrazono)-2-(p-tolyl)ethyl)thio)-1H-benzo[d]imidazole], the IC50 in test [1] (setting [3]) was found to be 36 ± 0.41 µM; in test [2] (setting [4]) it was 39.55 ± 0.03 µM.

Regarding `COc1ccc(/C(CSc2nc3cc([N+](=O)[O-])ccc3[nH]2)=N\N=C\c2cc[nH]c2)cc1` [Compound 12], the IC50 in test [1] (setting [3]) was determined as 23.1 ± 0.35 µM; in test [2] (setting [4]), 27.35 ± 0.06 µM.

On to `O=[N+]([O-])c1cccc(/C(CSc2nc3ccccc3[nH]2)=N\N=C\N2CCCCC2)c1` [Compound 20, 2-(((E)-2-(3-nitrophenyl)-2-(((E)-piperidin-1-ylmethylene)hydrazono)ethyl)thio)-1H-benzo[d]imidazole], for which the IC50 is 29.04 ± 0.22 µM in test [1] (setting [3]) and 31.25 ± 0.03 µM in test [2] (setting [4]).

`COc1ccc(/C(CSc2nc3cc(OC)ccc3[nH]2)=N\N=C\c2cc[nH]c2)cc1` [Compound 2, 2-(((E)-2-(((E)-(1H-pyrrol-3-yl)methylene)hydrazono)-2-(4-methoxyphenyl)ethyl)thio)-5-methoxy-1H-benzo[d]imidazole]: the values for the IC50 in test [1] (setting [3]) and in test [2] (setting [4]) were 20.04 ± 0.15 µM and 23.22 ± 0.15 µM, respectively.

Consider `O=[N+]([O-])c1ccc2[nH]c(SC/C(=N/N=C/c3cc[nH]c3)c3ccc(-c4ccccc4)cc3)nc2c1` [Compound 11, 2-(((E)-2-(((E)-(1H-pyrrol-3-yl)methylene)hydrazono)-2-([1,1′-biphenyl]-4-yl)ethyl)thio)-5-nitro-1H-benzo[d]imidazole], for which the IC50 is 32.13 ± 0.18 µM in test [1] (setting [3]) and 37.76 ± 0.08 µM in test [2] (setting [4]).

For the compound `O=[N+]([O-])c1ccc2[nH]c(SC/C(=N/N=C/N3CCCCC3)c3ccc(-c4ccccc4)cc3)nc2c1` [Compound 23], the IC50 came to 38.2 ± 0.4 µM in test [1] (setting [3]) and 42.27 ± 0.41 µM in test [2] (setting [4]).

As for `COc1ccccc1/C(CSc1nc2ccccc2[nH]1)=N\N=C\c1cc[nH]c1` [Compound 8, 2-(((E)-2-(((E)-(1H-pyrrol-3-yl)methylene)hydrazono)-2-(2-methoxyphenyl)ethyl)thio)-1H-benzo[d]imidazole], the IC50 came out at 21.03 ± 0.11 µM in test [1] (setting [3]) and 25.1 ± 0.44 µM in test [2] (setting [4]).
